Laboratory results from patent US20230416329A1, “A PEPTIDE WITH DISULFIDE BONDS AND INHIBITORY ACTIVITY AGAINST SERINE PROTEASES, DERIVED HYBRID PEPTIDES THEREOF, AND USES THEREOF” (INSTITUTE OF MATERIA MEDICA , CHINESE ACADEMY OF MEDICAL …, priority 2020, published 2023).
Like-named read-outs stand apart in the source and are kept apart here. Bridge positions count the residues as written; N and C are the ends. Square brackets hold non-standard residues; d marks the D form. Peptide text beside a SMILES is read from it. Hyp = O=C(O)[C@@H]1C[C@@H](O)CN1; Nle = CCCC[C@H](N)C(=O)O; Abu = CC[C@H](N)C(=O)O

Columns and labels:
α-chymotrypsin = α-chymotrypsin (Bos taurus, UniProt P00766); assay: Chymotrypsin inhibitory activity of peptides (AAPFpNA hydrolysis; IC50, Ki, residual activity); type: biochemical; settings: for Ki: Ki=IC50/(1+S/Km), Km 0.38 mM; for IC50: chymotrypsin 30 nM, AAPFpNA 0.5 mM
Method: The inhibition constants of various synthetic active peptide inhibitors (molecular scaffolds) against seine proteases were measured. The substrates N-succinyl-Ala-Ala-Pro-Phe-p-nitroaniline (AAPFpNA), Nα—Benzoyl-L-arginine-4-nitroaniline hydrochloride (BApNA) and N-succinyl-[…] (AAApNA) are used in competitive binding reaction to determine the inhibitory activities against α-chymotrypsin, bovine trypsin, and porcine pancreatic elastase, respectively. Experiments for α-chymotrypsin and bovine trypsin inhibition were measured in 20 mM CaCl2, 50 mM Tris-HCl buffer (pH 7.8), and that for porcine elastase inhibition was measured in 50 mM Tris-HCl buffer (pH 8.0). The concentration of the peptide was measured using optical density (OD) at 280 nm. The Michaelis constant (Km) of the enzyme hydrolysis substrate is calculated from the initial rate of substrate hydrolysis at 405 nm. The absorbance value of the substrate was measured at 405 nm after complete hydrolysis. All data were processed using nonlinear regression.
• (1) Added a total 190 μL of reaction buffer (20 mM CaCl2, 50 mM Tris-HCl (pH 7.8)) into the 96 well plate, followed by preheating at 37° C. for 15 min. Then added 2 μL of different concentrations of substrates (p-Nitroanilide, pNA, 0.5% in DMSO), and mixed by centrifugation at 500 rpm for 1 min. Finally, the plate was incubated at 37° C. for 20 min, and the absorbance value at 405 nm was measured. In the 200 μL of reaction system, the final concentrations of pNA were 0, 0.025, 0.05, 0.075, 0.1, 0.125, 0.15, 0.25, and 0.3 mM, respectively. Make three repetitions for each concentration and plot the OD405 m value with pNA concentration to obtain the standard curve. • (2) Added a total 190 μL of reaction buffer (20 mM CaCl2, 50 mM Tris-HCl (pH 7.8)) and 8 μL of 0.75 μM chymotrypsin into the 96 well plate, followed by preheating at 37° C. for 5 min. Then added 2 μL of different concentrations of substrates (AAPFpNA, dissolved in DMSO), and mixed by centrifugation at 500 rpm for 1 min. Finally, the plate was incubated at 37° C. for 20 min, and the absorbance value at 405 nm was measured. In the 200 μL of reaction system, the final concentrations of AAPFpNA were 0, 0.125, 0.25, 0.285, 0.33, 0.4, and 0.5 mM, respectively. Make three repetitions for each concentration and plot the OD405 nm value with time to obtain the corresponding curve. Divide the slope of the curve by the slope of the standard curve and the enzyme concentration to obtain the initial velocity V0 (mM/(min*mM protein). Plot the initial velocity V0 with the concentration of substrate AAPFpNA using Prism software, and the Michaelis constant Km value of chymotrypsin hydrolyzing AAPFpNA was obtained.
• (1) Added a total 190 μL of reaction buffer (20 mM CaCl2, 50 mM Tris-HCl (pH 7.8)), different concentrations of anti-chymorypsin peptides (CHs) into the pre-cold 96 well plate, followed by preheating at 37° C. for 5 min and centrifugated at 500 rpm for 1 min and allowed to stand for 4 minutes. Then added 8 μL of 750 nM chymotrypsin and incubated at 37° C. for 10 min, and centrifugated at 500 rpm for 1 min and allowed to stand for 9 minutes. Finally, added 2 μL of 50 mM AAPFpNA, and mixed by centrifugation at 500 rpm for 1 min. The plate was incubated at 37° C. for 90 min, and the absorbance value at 405 nm was measured. Three repetitions were made, and only reaction buffer and substrate were added in the blank control as the minimum absorption value (Min OD405 nm); Only reaction buffer, enzyme and substrate were added in the negative control as the maximum absorption value (Max OD405). • (2) In the 200 μL of reaction system, the final concentrations of chymotrypsin and AAPFpNA were 30 nM and 0.5 mM, respectively. • (3) Data statistics
Residual activity of enzyme (%)=(1−(Max OD405 nm−Sample OD405 nm)/(Max OD405 nm−Min OD405 nm))*100 […]

chymotrypsin = chymotrypsin (Bos taurus, UniProt P00766); assay: in vitro
Method: FIG. 18. […] At different time point, 25 μL aliquots was taken out, and 10% (v/v) TFA was added to terminate the reaction.
Mix by centrifugation at 8000 rpm for 30 seconds.
Arrange a certain volume of 0.05 μg/μL chymotrypsin solution in another sterile EP. Incubate the EP tubes containing peptides and enzymes at 37° C. for 5 min, and add 3 μL of […] solution to each EP tube containing peptides and mix well. Start timing and extract 25 μL of reaction solution at 1.5, 3.0, 4.5, 6.0 and 9.0 min later, respectively. Add 3.75 μL of 10% TFA to terminate the reaction and mix well by centrifugation at 8000 rpm for 30 seconds.
Arrange a certain volume of 0.05 μg/μL chymotrypsin solution in another sterile EP. Incubate the EP tubes containing peptides and enzymes at 37° C. for 5 min, and then add 4.5 μL of chymotrypsin solution to each EP tube containing peptides and mix well. Start timing and extract 25 μL of reaction solution at 1.5, 3.0, 4.5, 6.0, 9.0, 15.0, 30.0, and 60.0 min later, respectively. Add 3.75 μL of 10% TFA to terminate the reaction and mix well by centrifugation at 8000 rpm for 30 seconds.
Referring to the experimental method in Example 5, in vitro stability of salmon Calcitonin analogs with oral administration activity to the enzymatic hydrolysis by trypsin, chymotrypsin and elastase were performed.
Referring to the experimental method in Example 5, in vitro stability of IL-17A inhibitory peptides towards the enzymatic hydrolysis by trypsin, chymotrypsin and elastase were performed.

bovine trypsin = target: T1, bovine trypsin (Bos taurus, UniProt P00760); assay: Trypsin inhibitory activity of peptides (BApNA hydrolysis, OD405; IC50, Ki, residual activity); type: biochemical; settings: for Ki: Ki=IC50/(1+S/Km), Km 0.33 mM, read-out: Ki; for IC50: trypsin 50 nM, BApNA 1.22 mM, read-out: IC50
T1 sequence (P00760 24-246): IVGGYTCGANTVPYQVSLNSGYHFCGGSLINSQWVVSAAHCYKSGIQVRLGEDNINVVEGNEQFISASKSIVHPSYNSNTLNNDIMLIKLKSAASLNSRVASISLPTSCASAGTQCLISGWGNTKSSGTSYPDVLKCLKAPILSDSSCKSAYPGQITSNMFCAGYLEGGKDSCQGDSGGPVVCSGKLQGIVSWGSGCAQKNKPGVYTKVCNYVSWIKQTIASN
How it was run: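 Trypsin (50 nM final) preincubated with peptides at 37 °C in 50 mM Tris-HCl pH 7.8, 20 mM CaCl2; BApNA added (1.22 mM final), 260 min at 37 °C, then OD405 read. Residual activity from enzyme-only and substrate-only controls; IC50 fitted and converted to Ki via Ki=IC50/(1+S/Km), Km measured separately for BApNA.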

[1] = isolated enzyme chymotrypsin, pH 7.8, Remaining peak area (%)/chymotrypsin

CC[C@H](C)[C@H](N)C(=O)N[C@H]1CSSC[C@@H](C(=O)N[C@H](C(=O)O)[C@@H](C)CC)NC(=O)[C@H](CCC(N)=O)NC(=O)[C@H](C)NC(=O)[C@@H]2CCCN2C(=O)[C@H]([C@@H](C)CC)NC(=O)[C@H](CO)NC(=O)[C@H](Cc2ccc(O)cc2)NC(=O)[C@H]([C@@H](C)O)NC1=O [CH47] (H-ICTYSIPAQCI-OH; disulfide 2-10; N-terminus and C-terminus assumed) was tested, and the “inhibitory activity against chymotrypsin (in words)” value (α-chymotrypsin) was “good chymotrypsin inhibitory activity”, the Ki (α-chymotrypsin) was 3.68 µM and the IC50 (α-chymotrypsin) was 8.52 µM.

For CC[C@H](C)[C@@H]1NC(=O)[C@H](CO)NC(=O)[C@H](Cc2ccc(O)cc2)NC(=O)[C@H]([C@@H](C)O)NC(=O)[C@@H](NC(=O)[C@@H](N)Cc2ccccc2)CSSC[C@@H](C(=O)N[C@@H](Cc2ccc(O)cc2)C(=O)NCC(=O)O)NC(=O)[C@H](CCC(N)=O)NC(=O)[C@@H]2CCCN2C(=O)[C@@H]2C[C@@H](O)CN2C1=O [CH53, FCTYSIHypPQCYG] (H-FCTYSI[Hyp]PQCYG-OH; disulfide 2-10; C-terminus assumed), the “inhibitory activity against chymotrypsin (in words)” value (α-chymotrypsin) was “good chymotrypsin inhibitory activity”, the Ki (α-chymotrypsin) was 0.11 µM and the IC50 (α-chymotrypsin) was 0.25 µM.

Work on CC[C@H](C)[C@@H]1NC(=O)[C@H](CO)NC(=O)[C@H](Cc2ccc(O)cc2)NC(=O)[C@H]([C@@H](C)O)NC(=O)[C@H](C)NC(=O)[C@H](Cc2ccc(O)cc2)NC(=O)CNC(=O)[C@@H](N)CSSC[C@@H](C(=O)N[C@@H](Cc2ccc(O)cc2)C(=O)NCC(=O)O)NC(=O)[C@H](CCC(N)=O)NC(=O)[C@@H]2CCCN2C(=O)[C@@H]2CCCN2C1=O [CH30] (H-CGYATYSIPPQCYG-OH; disulfide 1-12) yielded an IC50 (α-chymotrypsin) of over 50 µM.

In the case of CC[C@H](C)[C@H](N)C(=O)N[C@@H](Cc1c[nH]cn1)C(=O)N[C@H](C(=O)N[C@H](C(=O)N[C@H](C(=O)N1CCC[C@H]1C(=O)N[C@@H](C)C(=O)N[C@@H](CC(=O)O)C(=O)N[C@@H](CC(C)C)C(=O)N[C@@H](Cc1c[nH]c2ccccc12)C(=O)N[C@@H](CC(=O)O)C(=O)N[C@@H](Cc1c[nH]c2ccccc12)C(=O)N[C@H](C(=O)N[C@@H](CC(N)=O)C(=O)NCC(=O)N[C@@H](Cc1ccccc1)C(=O)N[C@H]1CSSC[C@@H](C(=O)N[C@@H](Cc2ccc(O)cc2)C(=O)NCC(=O)O)NC(=O)[C@H](CCC(N)=O)NC(=O)[C@@H]2CCCN2C(=O)[C@@H]2CCCN2C(=O)[C@H]([C@@H](C)CC)NC(=O)[C@H](CO)NC(=O)[C@H](Cc2ccc(O)cc2)NC(=O)[C@H]([C@@H](C)O)NC1=O)[C@@H](C)CC)[C@@H](C)CC)[C@@H](C)O)C(C)C [17A-CH] (H-IHVTIPADLWDWINGFCTYSIPPQCYG-OH; disulfide 17-25), the “stability towards chymotrypsin hydrolysis (in words)” value (chymotrypsin) is reported as “tolerated to the degradation of corresponding serine proteases”, the “Remaining peak area (%)/chymotrypsin” value (chymotrypsin; 0 h) is reported as 100.0 ± 0.0% and the remaining at 0.025 h, 60 μM (chymotrypsin; [1]) is reported as 41.6 ± 3%. The remaining at 0.05 h, 60 μM (chymotrypsin; [1]) was 41.7 ± 6%, the remaining at 0.075 h, 60 μM (chymotrypsin; [1]) was 38.8 ± 3.4% and the remaining at 0.1 h, 60 μM (chymotrypsin; [1]) was 45.1 ± 8.5%. It also gave a remaining at 0.15 h, 60 μM (chymotrypsin; [1]) of 44.3 ± 7.6%, a remaining at 0.25 h, 60 μM (chymotrypsin; [1]) of 35.2 ± 3.8% and a remaining at 0.5 h, 60 μM (chymotrypsin; [1]) of 30.5 ± 2.5%. The remaining at 1 h, 60 μM (chymotrypsin; [1]) was 35.7 ± 3%.

In the case of CC[C@H](C)[C@@H]1NC(=O)[C@@H]2CCCN2C(=O)[C@@H]2CCCN2C(=O)[C@H]([C@@H](C)CC)NC(=O)[C@H](CO)NC(=O)[C@H](CCCCN)NC(=O)[C@H]([C@@H](C)O)NC(=O)CNC(=O)[C@H](CCCNC(=N)N)NC(=O)CNC(=O)[C@@H](N)CSSC[C@@H](C(=O)N[C@@H](Cc2ccccc2)C(=O)O)NC1=O [BT60] (H-CGRGTKSIPPICF-OH; disulfide 1-12), the “inhibitory activity against trypsin (in words)” value (bovine trypsin) is reported as “excellent trypsin inhibitory activities” and the Ki (bovine trypsin) is reported as 0.09 µM.

In the case of CC[C@@H]1NC(=O)[C@@H](N)CSSC[C@@H](C(=O)N[C@@H](Cc2ccccc2)C(=O)O)NC(=O)[C@H]([C@@H](C)CC)NC(=O)[C@@H]2CCCN2C(=O)[C@@H]2CCCN2C(=O)[C@H]([C@@H](C)CC)NC(=O)[C@H](CO)NC(=O)[C@H](CCCCN)NC(=O)[C@H]([C@@H](C)O)NC(=O)[C@H](C)NC(=O)[C@H](CCCNC(=N)N)NC1=O [BT74] (H-C[Abu]RATKSIPPICF-OH; disulfide 1-12; N-terminus and C-terminus assumed), the “inhibitory activity against trypsin (in words)” value (bovine trypsin) is reported as “excellent trypsin inhibitory activities”, the Ki (bovine trypsin) is reported as 0.02 µM and the IC50 (bovine trypsin) is reported as 0.09 µM.

With CCCC[C@@H]1NC(=O)[C@H](CO)NC(=O)[C@H](CCCCN)NC(=O)[C@H]([C@@H](C)O)NC(=O)[C@H](C)NC(=O)[C@H](CCCNC(=N)N)NC(=O)CNC(=O)[C@@H](N)CSSC[C@@H](C(=O)N[C@@H](Cc2ccccc2)C(=O)O)NC(=O)[C@H]([C@@H](C)CC)NC(=O)[C@@H]2CCCN2C(=O)[C@@H]2CCCN2C1=O [BT28] (H-CGRATKS[Nle]PPICF-OH; disulfide 1-12; C-terminus assumed) the “inhibitory activity against trypsin (in words)” value (bovine trypsin) was “reduced their anti-trypsin activities”, the Ki (bovine trypsin) was 0.06 µM and the “inhibitory activity against trypsin (in words)” value (bovine trypsin; listed as SEQ ID NO: 28) was “excellent trypsin inhibitory activities”. It also gave a Residual trypsin activity (bovine trypsin; peptide 0.00098 μM) of 102.3 ± 0.7%, a Residual trypsin activity (bovine trypsin; peptide 0.0098 μM) of 101.8 ± 0.1% and a Residual trypsin activity (bovine trypsin; peptide 0.098 μM) of 92.2 ± 5.5%. For the same molecule, the Residual trypsin activity (bovine trypsin; peptide 0.195 μM) was 77.6 ± 8.3%, the Residual trypsin activity (bovine trypsin; peptide 0.293 μM) was 52.7 ± 5.9% and the Residual trypsin activity (bovine trypsin; peptide 0.390 μM) was 16.7 ± 3.7%. The Residual trypsin activity (bovine trypsin; peptide 0.98 μM) was 0.7 ± 0.0%, the Residual trypsin activity (bovine trypsin; peptide 9.76 μM) was 0.1 ± 0.0% and the Residual trypsin activity (bovine trypsin; peptide 97.56 μM) was 0.0 ± 0.0%. The IC50 (bovine trypsin) was 0.29 µM.
